Experimental data from PMC3034713, “Targeting Vascular NADPH Oxidase 1 Blocks Tumor Angiogenesis through a PPARα Mediated Mechanism” (PLoS ONE, 2011).

Tests used:
xanthine oxidase [1] = target: T1, xanthine oxidase (Homo sapiens, UniProt P47989); assay: Pharmacological profiling (Cerep), Table S1
MAO-B = MAO-B (Homo sapiens, UniProt P27338); assay: Pharmacological profiling (Cerep), Table S1
MLEC [2] = assay: Wound healing assay (endothelial cell migration); type: cell-based, mouse
Method: Wound healing assay was performed as described previously. Briefly, endothelial cells were plated in Matrigel (Becton Dickinson) precoated 96 wells plates. One day after plating the cell monolayer was scratched to make a regular wound. Cells were allowed to migrate overnight. Migration area was then measured and calculated using the Metamorph program (MDS Analytical Technologies).

PKC a, bI, bII, d = assay: Pharmacological profiling (Cerep), Table S1
[3] = test system: murine and human endothelial cells (MLEC, HUVEC, mouse endothelioma); assay: ROS measurement with DHE in endothelial cells stimulated with VEGF or bFGF; type: cell-based; conditions: 10 µM
Method: Endothelial cells were seeded on glass slides and stained with dihydroethidium (DHE). Images were captured with an inverted microscope and analyzed with Metafluor imaging software (MDS Analytical Technologies). Quantification was performed by measuring the fluorescence intensity of over minimum 50 endothelial cells per slide.

MLEC [4] = assay: Endothelial cell sprouting assay (tube-like structure formation, 3D culture); type: cell-based, mouse; conditions: MLEC, 10 µM
Method: Sprouting assay was performed as described previously. Briefly, endothelial cells were plated in 96 well plates at 8,000 cells per well in a 3D fibrin gel. Above the gel, 10% FCS containing DMEM was complemented with 200 KIU/ml of Aprotinin (Sigma). Length of branches was evaluated using the Metamorph program. Results are expressed in mm of skeleton length/number of cells.

LLC1 [5] = assay: ROS production by tumor cells (DHE substrate); type: cell-based; conditions: 10 μM, 1h
Method: (§1) Supplementary file pone.0014665.s008.tif: Figure S7 Effect of GKT 136901 on tumor cells. a. LLC1 and B16F0 cell proliferation was measured by EdU incorporation and propidium iodide staining of DNA content, 24h after incubation with 10 μM of GKT136901. b. LLC1 apoptosis was measured by AnnexinV/PI staining after 24h of incubation with 10 μM of GKT136901. c. ROS levels produced by LLC1 are inhibited by GKT136901. ROS production was quantified by DHE substrate 1h after incubation with 10 μM of the inhibitor. *** p<0.001 (student t-test). (6.11 MB TIF) Click here for additional data file.

NOX4 = target: T2, NOX4 (Homo sapiens, UniProt Q9NPH5); assay: NOX inhibition in cell free assay, membranes from cells overexpressing NOX4 (Amplex Red ROS); type: biochemical; conditions: Figure S2
T2 construct: expressed in transfected cells
T2 sequence (Q9NPH5 whole entry, species assumed, one chain of several): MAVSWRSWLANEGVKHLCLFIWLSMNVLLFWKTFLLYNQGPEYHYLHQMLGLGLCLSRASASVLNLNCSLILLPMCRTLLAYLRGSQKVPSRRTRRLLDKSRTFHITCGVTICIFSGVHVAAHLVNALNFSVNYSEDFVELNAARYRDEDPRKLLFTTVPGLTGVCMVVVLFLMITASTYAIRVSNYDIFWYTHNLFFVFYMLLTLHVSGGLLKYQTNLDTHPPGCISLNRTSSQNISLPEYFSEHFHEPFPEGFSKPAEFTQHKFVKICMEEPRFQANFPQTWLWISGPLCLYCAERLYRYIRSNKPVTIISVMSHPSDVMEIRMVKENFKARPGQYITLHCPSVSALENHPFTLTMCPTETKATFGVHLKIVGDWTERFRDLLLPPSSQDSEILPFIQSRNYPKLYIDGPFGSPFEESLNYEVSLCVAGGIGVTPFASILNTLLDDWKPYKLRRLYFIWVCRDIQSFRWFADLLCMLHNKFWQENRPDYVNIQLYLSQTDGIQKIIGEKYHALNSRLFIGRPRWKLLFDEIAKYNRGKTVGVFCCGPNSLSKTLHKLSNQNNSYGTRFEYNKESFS
Method: (§2) Membranes from NOX2 expressing PMN cells or from cells overexpressing NOX1 or NOX4 were prepared as previously described. After resuspension in sonication buffer (11% sucrose, 120 mM NaCl, 1 mM EGTA in PBS, pH 7.4 for NOX4-expressing cells) or in relax buffer (10 mM Pipes, 3 mM NaCl, 3.5 mM MgCl2, 0.1 M KCl, pH 7.4), cells were broken by sonication and centrifuged (200 g, 10 min). The supernatant was loaded onto a 17/40% (w/v) discontinuous sucrose gradient and centrifuged (150,000 g for 30 min). Membrane fractions were collected and stored at −80°C. ROS production measurements of membranes expressing different NOX subunits was determined as previously described using the Amplex Red method (Invitrogen).

cNos = assay: Pharmacological profiling (Cerep), Table S1; type: biochemical
[6] = test system: Heart, Kidney, Liver and Lung of mice; conditions: mouse, in vivo
Method: Supplementary file pone.0014665.s009.tif: Figure S8 Non toxic effect GKT 136901 on mice organs. Heart (a), Kidney (b), Liver (c) and Lung (d) of mice treated orally with vehicle or with vehicle plus GKT136901 inhibitor at 40 mg/kg per day during 8 days, stained by Hematoxilin/Eosin. Scale bars represent 100 μm on the full picture and 20 μm on the zoom. Images were acquired with a 20x/0.8 numeric aperture and analyzed using Mirax (Carl Zeiss). (8.38 MB TIF) Click here for additional data file.

NOX1 = target: T3, NOX1 (Homo sapiens, UniProt Q9Y5S8); assay: NOX inhibition in cell free assay, membranes from cells overexpressing NOX1 (Amplex Red ROS); type: biochemical
T3 construct: expressed in transfected cells
T3 sequence (Q9Y5S8 1-564): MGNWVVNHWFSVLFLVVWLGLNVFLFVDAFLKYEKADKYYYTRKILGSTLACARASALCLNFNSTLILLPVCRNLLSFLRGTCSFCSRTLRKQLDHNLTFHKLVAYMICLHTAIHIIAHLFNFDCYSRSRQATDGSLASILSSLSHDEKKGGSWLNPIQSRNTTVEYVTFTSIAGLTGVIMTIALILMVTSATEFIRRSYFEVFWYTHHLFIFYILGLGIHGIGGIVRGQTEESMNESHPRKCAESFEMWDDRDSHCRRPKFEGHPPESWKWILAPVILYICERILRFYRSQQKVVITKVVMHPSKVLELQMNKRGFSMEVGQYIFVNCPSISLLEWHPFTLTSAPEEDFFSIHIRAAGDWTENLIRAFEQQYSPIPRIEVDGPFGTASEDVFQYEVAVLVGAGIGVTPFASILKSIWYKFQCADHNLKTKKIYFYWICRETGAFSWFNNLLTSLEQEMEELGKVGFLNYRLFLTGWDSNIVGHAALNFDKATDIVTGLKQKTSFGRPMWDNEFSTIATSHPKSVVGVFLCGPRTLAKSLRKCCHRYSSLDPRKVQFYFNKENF
T3 sequence (P13498 2-195 partner limits assumed): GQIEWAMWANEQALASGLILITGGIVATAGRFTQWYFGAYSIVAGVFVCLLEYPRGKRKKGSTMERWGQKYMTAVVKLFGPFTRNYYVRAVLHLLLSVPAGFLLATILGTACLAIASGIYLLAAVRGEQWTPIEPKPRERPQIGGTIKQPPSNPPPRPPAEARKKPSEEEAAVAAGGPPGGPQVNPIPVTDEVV
Method: as §2

MPO = MPO (Homo sapiens, UniProt P05164); assay: Pharmacological profiling (Cerep), Table S1
MPO, sequence (P05164 49-745, species assumed): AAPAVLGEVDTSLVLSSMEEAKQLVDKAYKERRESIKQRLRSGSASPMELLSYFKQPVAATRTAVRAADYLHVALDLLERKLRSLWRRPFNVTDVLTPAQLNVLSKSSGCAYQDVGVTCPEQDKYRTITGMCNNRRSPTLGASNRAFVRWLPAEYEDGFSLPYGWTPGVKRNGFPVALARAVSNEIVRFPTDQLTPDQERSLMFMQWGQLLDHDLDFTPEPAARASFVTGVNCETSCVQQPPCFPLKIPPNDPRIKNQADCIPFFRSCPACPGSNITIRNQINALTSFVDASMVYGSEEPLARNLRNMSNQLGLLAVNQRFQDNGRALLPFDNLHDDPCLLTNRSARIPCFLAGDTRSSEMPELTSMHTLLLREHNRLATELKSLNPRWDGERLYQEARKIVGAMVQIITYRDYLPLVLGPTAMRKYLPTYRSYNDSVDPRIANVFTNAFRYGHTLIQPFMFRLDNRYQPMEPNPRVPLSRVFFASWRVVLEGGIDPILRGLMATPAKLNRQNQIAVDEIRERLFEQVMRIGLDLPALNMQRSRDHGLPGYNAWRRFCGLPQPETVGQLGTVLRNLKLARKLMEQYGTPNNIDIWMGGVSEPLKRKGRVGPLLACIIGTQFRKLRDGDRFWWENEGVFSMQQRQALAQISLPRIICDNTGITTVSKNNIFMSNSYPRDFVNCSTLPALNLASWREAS

12-Lipoxygenase = 12-Lipoxygenase (Homo sapiens, UniProt P18054); assay: Pharmacological profiling (Cerep), Table S1
12-Lipoxygenase, sequence (P18054 whole entry): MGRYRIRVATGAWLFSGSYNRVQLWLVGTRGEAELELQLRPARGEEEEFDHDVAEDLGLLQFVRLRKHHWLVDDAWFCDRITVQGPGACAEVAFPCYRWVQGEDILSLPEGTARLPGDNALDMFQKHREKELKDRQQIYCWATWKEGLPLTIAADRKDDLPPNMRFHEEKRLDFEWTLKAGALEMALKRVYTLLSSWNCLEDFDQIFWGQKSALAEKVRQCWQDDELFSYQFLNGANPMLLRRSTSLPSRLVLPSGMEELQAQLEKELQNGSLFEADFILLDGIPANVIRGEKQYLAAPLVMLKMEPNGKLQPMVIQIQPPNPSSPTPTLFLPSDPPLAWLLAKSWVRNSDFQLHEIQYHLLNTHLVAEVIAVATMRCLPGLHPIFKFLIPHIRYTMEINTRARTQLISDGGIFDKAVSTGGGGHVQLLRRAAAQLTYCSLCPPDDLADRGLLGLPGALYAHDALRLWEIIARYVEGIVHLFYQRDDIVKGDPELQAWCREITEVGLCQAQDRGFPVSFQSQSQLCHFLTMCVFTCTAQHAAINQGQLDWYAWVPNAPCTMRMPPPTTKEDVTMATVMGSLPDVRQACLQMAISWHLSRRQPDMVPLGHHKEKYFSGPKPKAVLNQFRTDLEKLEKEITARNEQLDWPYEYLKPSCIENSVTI

LLC1 and B16F0 cells = assay: Tumor cell proliferation (EdU incorporation, propidium iodide); type: cell-based; conditions: 10 μM, 24h
Method: as §1

PI3K a, b, d, g = assay: Pharmacological profiling (Cerep), Table S1
xanthine oxidase [7] = target: T1, xanthine oxidase; assay: Xanthine oxidase inhibition, concentration-response; type: biochemical
LLC1 [8] = assay: Tumor cell apoptosis (AnnexinV/PI staining); type: cell-based; conditions: 10 μM, 24h
Method: as §1

T1 sequence (P47989 whole entry, species assumed): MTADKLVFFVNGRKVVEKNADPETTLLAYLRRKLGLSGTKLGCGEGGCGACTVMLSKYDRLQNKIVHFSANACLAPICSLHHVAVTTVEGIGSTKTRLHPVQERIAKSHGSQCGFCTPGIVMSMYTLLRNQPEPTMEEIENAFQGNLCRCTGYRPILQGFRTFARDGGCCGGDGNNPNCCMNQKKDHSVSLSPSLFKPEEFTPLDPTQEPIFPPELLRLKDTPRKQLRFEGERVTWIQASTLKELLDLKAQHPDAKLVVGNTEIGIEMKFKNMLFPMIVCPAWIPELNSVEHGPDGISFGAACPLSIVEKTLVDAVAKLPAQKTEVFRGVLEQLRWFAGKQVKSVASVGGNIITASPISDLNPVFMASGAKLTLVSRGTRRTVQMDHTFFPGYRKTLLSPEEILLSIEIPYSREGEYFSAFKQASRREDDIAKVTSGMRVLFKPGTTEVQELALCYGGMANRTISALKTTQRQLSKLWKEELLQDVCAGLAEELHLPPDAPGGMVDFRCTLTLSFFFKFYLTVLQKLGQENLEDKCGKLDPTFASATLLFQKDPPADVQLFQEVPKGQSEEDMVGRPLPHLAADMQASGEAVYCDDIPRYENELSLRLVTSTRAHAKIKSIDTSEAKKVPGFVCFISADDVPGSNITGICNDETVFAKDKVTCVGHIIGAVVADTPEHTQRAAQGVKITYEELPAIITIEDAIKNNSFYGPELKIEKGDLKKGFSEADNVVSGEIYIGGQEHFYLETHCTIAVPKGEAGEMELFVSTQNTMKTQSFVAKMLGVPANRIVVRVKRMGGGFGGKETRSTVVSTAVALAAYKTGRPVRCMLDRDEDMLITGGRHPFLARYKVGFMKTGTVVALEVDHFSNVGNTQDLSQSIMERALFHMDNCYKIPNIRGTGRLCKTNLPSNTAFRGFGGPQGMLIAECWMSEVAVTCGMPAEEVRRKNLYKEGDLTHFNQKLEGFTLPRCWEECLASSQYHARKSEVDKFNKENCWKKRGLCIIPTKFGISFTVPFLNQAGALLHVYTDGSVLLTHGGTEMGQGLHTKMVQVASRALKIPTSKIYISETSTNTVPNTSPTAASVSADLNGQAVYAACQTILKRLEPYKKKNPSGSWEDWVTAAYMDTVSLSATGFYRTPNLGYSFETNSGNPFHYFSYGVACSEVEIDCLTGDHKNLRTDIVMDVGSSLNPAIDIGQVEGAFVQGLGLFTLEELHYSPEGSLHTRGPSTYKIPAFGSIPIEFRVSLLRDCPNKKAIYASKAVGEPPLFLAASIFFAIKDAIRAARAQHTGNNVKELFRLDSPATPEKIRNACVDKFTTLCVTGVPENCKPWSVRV
MAO-B, sequence (P27338 whole entry, species assumed): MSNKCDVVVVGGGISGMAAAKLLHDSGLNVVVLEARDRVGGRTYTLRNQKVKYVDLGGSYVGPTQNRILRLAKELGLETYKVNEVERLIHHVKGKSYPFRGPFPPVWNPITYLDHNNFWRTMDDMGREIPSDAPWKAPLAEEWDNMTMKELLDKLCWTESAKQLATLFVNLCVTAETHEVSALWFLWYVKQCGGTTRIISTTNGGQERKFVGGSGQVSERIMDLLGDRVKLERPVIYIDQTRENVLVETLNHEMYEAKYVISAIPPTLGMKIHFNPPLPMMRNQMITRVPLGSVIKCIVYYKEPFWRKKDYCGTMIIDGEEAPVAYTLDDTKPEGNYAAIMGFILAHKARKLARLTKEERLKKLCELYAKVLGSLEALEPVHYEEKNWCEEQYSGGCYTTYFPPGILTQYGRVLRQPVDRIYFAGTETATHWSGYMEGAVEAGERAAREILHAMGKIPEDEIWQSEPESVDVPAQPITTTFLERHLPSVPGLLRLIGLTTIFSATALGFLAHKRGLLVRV

Cc1c2c(=O)n(-c3ccccc3Cl)[nH]c2cc(=O)n1Cc1ccccn1 [GKT136901]
% Inhibition at 10 µM (xanthine oxidase [1]): 5% | % Inhibition at 10 µM (MAO-B): 0% | endothelial cell migration (MLEC [2]; MLEC, 10 µM): inhibition | endothelial cell migration or invasion in PPARα-deficient cells (MLEC [2]; PPARα-deficient endothelial cells, data not shown): did not affect | % Inhibition at 10 µM (PKC a, bI, bII, d): 0% | ROS induction after VEGF or bFGF stimulation [3]: did not induce ROS | tube formation (MLEC [4]): inhibition | ROS levels produced by LLC1 (LLC1 [5]): inhibited | extent of inhibition of oxidase activity of NOX4 (NOX4): completely inhibits | % Inhibition at 10 µM (cNos): 0% | toxic effect on mice (organ histology) [6]: no toxic effect | extent of inhibition of oxidase activity of NOX1 (NOX1; Figure S2): completely inhibits | Ki (NOX1; cell-free, membranes from NOX1 over-expressing cells): 160 ± 10 nM | % Inhibition at 10 µM (MPO): 0% | % Inhibition at 10 µM (12-Lipoxygenase): 2% | tumor cell proliferation in vitro (LLC1 and B16F0 cells): did not interfere | % Inhibition at 10 µM (PI3K a, b, d, g): 0% | Ki (xanthine oxidase [7]): > 100000 nM | tumor cell apoptosis in vitro (LLC1 [8]): did not interfere
